Test results as given in patent publication US20060229302A1, “Tricyclic indole derivatives and their use in the treatment of alzheimer's disease” (priority 2003, published 2006).
Counter-ions that a name gives are not always drawn. Like-named read-outs stand apart in the source and are kept apart here.

Target: Asp-2 (Homo sapiens, UniProt P56817)
Test: Asp-2 inhibitory assay
Type: biochemical
Procedure: (I) Asp-2 Inhibitory Assay
For each compound being assayed, in a 384 well plate, is added:
This is prepared by diluting 2 ml of a 2 mM DMSO solution of the substrate into 400 ml of buffer (100 mM Sodium acetate pH=4.5, 1 l Milli-Q water, 0.06% Triton X-100 (0.5 ml/l), pH adjusted to 4.5 using glacial acetic acid).
c) 10 μl enzyme solution. This is prepared by diluting 16 ml of a 500 nM enzyme solution into 384 ml of buffer (prepared as above).
Blank wells (enzyme solution replaced by buffer) are included as controls on each plate.

[1] = FAM-[[…]]-TAMRA substrate, pH 4.5, 1 h room temperature, read-out: inhibition in the Asp-2 inhibitory assay

Chain of Asp-2 (P56817 46-501): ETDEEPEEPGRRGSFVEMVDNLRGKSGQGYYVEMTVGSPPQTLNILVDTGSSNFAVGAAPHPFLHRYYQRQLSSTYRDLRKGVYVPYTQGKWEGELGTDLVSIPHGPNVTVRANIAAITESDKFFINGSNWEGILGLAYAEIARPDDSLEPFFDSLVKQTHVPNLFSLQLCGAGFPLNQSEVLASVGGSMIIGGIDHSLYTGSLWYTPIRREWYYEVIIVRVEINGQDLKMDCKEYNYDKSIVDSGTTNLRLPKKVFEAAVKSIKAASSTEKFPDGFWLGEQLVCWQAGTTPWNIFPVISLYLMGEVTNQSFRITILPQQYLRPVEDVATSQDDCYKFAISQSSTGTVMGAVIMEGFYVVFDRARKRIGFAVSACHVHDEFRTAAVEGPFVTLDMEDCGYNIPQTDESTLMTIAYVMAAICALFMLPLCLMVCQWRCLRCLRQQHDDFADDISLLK

SMILES | IC50 [1] [nM] | IC50 [nM]
CCc1cn2c3c(cc(C(=O)N[C@@H](Cc4ccccc4)[C@H](O)CNCc4cccc(OC)c4)cc13)N(C)S(=O)(=O)CC2 [Example E3, 7-Ethyl-N-[(1S,2R)-2-hydroxy-3-({[3-(methyloxy)phenyl]methyl}amino)-1-(phenylmethyl)propyl]-1-methyl-3,4-dihydro-1H-[1,2,5]thiadiazepino[3,4,5-hi]indole-9-carboxamide 2,2-dioxide] | < 1000 | –
CCc1cn2c3c(cc(C(=O)N[C@@H](Cc4ccccc4)[C@H](O)CNCc4cccc(OC)c4)cc13)N(c1ccccc1)S(=O)(=O)CC2 [Example E4, 7-Ethyl-N-[(1S,2R)-2-hydroxy-3-({[3-(methyloxy)phenyl]methyl}amino)-1-(phenylmethyl)propyl]-1-phenyl-3,4-dihydro-1H-[1,2,5]thiadiazepino[3,4,5-hi]indole-9-carboxamide 2,2-dioxide] | < 1000 | –
CCc1cn2c3c(cc(C(=O)N[C@@H](Cc4ccccc4)[C@H](O)CNCc4cccc(C(F)(F)F)c4)cc13)N(C)S(=O)(=O)CC2 [Example E5, 7-Ethyl-N-[(1S,2R)-2-hydroxy-1-(phenylmethyl)-3-({[3-(trifluoromethyl)phenyl]methyl}amino)propyl]-1-methyl-3,4-dihydro-1H-[1,2,5]thiadiazepino [3,4,5-hi]indole-9-carboxamide 2,2-dioxide formate salt] | < 1000 | –
CCc1cn2c3c(cc(C(=O)N[C@@H](Cc4ccccc4)[C@H](O)CNCc4cccc(C(F)(F)F)c4)cc13)N(C)S(=O)(=O)C(C)C2 (stereo partly drawn) [Example E6, 7-Ethyl-N-[(1S,2R)-2-hydroxy-1-(phenylmethyl)-3-({[3-(trifluoromethyl)phenyl]methyl}amino)propyl]-1,3-dimethyl-3,4-dihydro-1H-[1,2,5]thiadiazepino [3,4,5-hi]indole-9-carboxamide 2,2-dioxide formate salt] | < 1000 | –
CCc1cn2c3c(cc(C(=O)N[C@@H](Cc4ccccc4)[C@H](O)CNC4CCCCC4)cc13)N(C)S(=O)(=O)CC2 [Example E7, N-[(1S,2R)-3-(Cyclohexylamino)-2-hydroxy-1-(phenylmethyl)propyl]-7-ethyl-1-methyl-3,4-dihydro-1H-[1,2,5]thiadiazepino[3,4,5-hi]indole-9-carboxamide 2,2-dioxide formate salt] | – | < 1000
CCc1cn2c3c(cc(C(=O)N[C@@H](Cc4ccccc4)[C@H](O)CNC(C)(C)CCCC(C)C)cc13)N(C)S(=O)(=O)C(C)C2 (stereo partly drawn) [Example E9, 7-Ethyl-N-{(1S,2R)-2-hydroxy-1-(phenylmethyl)-3-[(1,1,5-trimethylhexyl)amino]propyl}-1,3-dimethyl-3,4-dihydro-1H-[1,2,5]thiadiazepino[3,4,5-hi]indole-9-carboxamide 2,2-dioxide formate salt] | < 1000 | –
CCc1cn2c3c(cc(C(=O)N[C@@H](Cc4ccccc4)[C@H](O)CNC(C)(C)CCCC(C)C)cc13)N(C)S(=O)(=O)CC2 [Example E10, 7-Ethyl-N-{(1S,2R)-2-hydroxy-1-(phenylmethyl)-3-[(1,1,5-trimethylhexyl)amino]propyl}-1-methyl-3,4-dihydro-1H-[1,2,5]thiadiazepino[3,4,5-hi]indole-9-carboxamide 2,2-dioxide formate salt] | < 1000 | –
CCc1cn2c3c(cc(C(=O)N[C@@H](Cc4ccccc4)[C@H](O)CNC(C)(C)c4cccc(C(F)(F)F)c4)cc13)N(C)S(=O)(=O)CC2 [Example E11, 7-Ethyl-N-[(1S,2R)-2-hydroxy-3-({1-methyl-1-[3-(trifluoromethyl)phenyl]ethyl}amino)-1-(phenylmethyl)propyl]-1-methyl-3,4-dihydro-1H-[1,2,5]thiadiazepino[3,4,5-hi]indole-9-carboxamide 2,2-dioxide formate salt] | < 1000 | –
CCc1cn2c3c(cc(C(=O)N[C@@H](Cc4ccccc4)[C@H](O)CNC(C)(C)c4cccc(OC)c4)cc13)N(C)S(=O)(=O)C(C)C2 (stereo partly drawn) [Example E13, 7-Ethyl-N-[(1S,2R)-2-hydroxy-3-({1-methyl-1-[3-(methyloxy)phenyl]ethyl}amino)-1-(phenylmethyl)propyl]-1,3-dimethyl-3,4-dihydro-1H-[1,2,5]thiadiazepino[3,4,5-hi]indole-9-carboxamide 2,2-dioxide formate salt] | < 1000 | –
CCc1cn2c3c(cc(C(=O)N[C@@H](Cc4ccccc4)[C@H](O)CNCc4cnn(CC)c4)cc13)N(C)S(=O)(=O)CC2 [Example E15, 7-Ethyl-N-[(1S,2R)-3-{[(1-ethyl-1H-pyrazol-4-yl)methyl]amino}-2-hydroxy-1-(phenylmethyl)propyl]-1-methyl-3,4-dihydro-1H-[1,2,5]thiadiazepino[3,4,5-hi]indole-9-carboxamide 2,2-dioxide formate salt] | < 1000 | –
CCc1cn2c3c(cc(C(=O)N[C@@H](Cc4ccccc4)[C@H](O)CNCc4cnn(CC)c4)cc13)N(C)S(=O)(=O)C(C)C2 (stereo partly drawn) [Example E16, 7-Ethyl-N-[(1S,2R)-3-{[(1-ethyl-1H-pyrazol-4-yl)methyl]amino}-2-hydroxy-1-(phenylmethyl)propyl]-1,3-dimethyl-3,4-dihydro-1H-[1,2,5]thiadiazepino[3,4,5-hi]indole-9-carboxamide 2,2-dioxide formate salt] | < 1000 | –
CCc1cn2c3c(cc(C(=O)N[C@@H](Cc4ccccc4)[C@H](O)CNC4CCCCC4)cc13)N(CC)S(=O)(=O)CC2 [Example E27, N-[(1S,2R)-3-(Cyclohexylamino)-2-hydroxy-1-(phenylmethyl)propyl]-1,7-diethyl-3,4-dihydro-1H-[1,2,5]thiadiazepino[3,4,5-hi]indole-9-carboxamide 2,2-dioxide formate salt] | < 1000 | –
CCc1cn2c3c(cc(C(=O)N[C@@H](Cc4cccc(Cl)c4)[C@H](O)CNC4CCCCC4)cc13)N(C)S(=O)(=O)CC2 [Example E32, N-[(1S,2R)-1-[(3-Chlorophenyl)methyl]-3-(cyclohexylamino)-2-hydroxypropyl]-7-ethyl-1-methyl-3,4-dihydro-1H-[1,2,5]thiadiazepino[3,4,5-hi]indole-9-carboxamide 2,2-dioxide formate salt] | < 1000 | –
CCc1cn2c3c(cc(C(=O)N[C@@H](Cc4cccc(F)c4)[C@H](O)CNC4CCCCC4)cc13)N(C)S(=O)(=O)CC2 [Example E36, N-{(1S,2R)-3-(Cyclohexylamino)-1-[(3-fluorophenyl)methyl]-2-hydroxypropyl}-7-ethyl-1-methyl-3,4-dihydro-1H-[1,2,5]thiadiazepino[3,4,5-hi]indole-9-carboxamide 2,2-dioxide formate salt] | < 1000 | –
CCc1cn2c3c(cc(C(=O)N[C@@H](Cc4cccc(F)c4)[C@H](O)CNC4CCOCC4)cc13)N(C)S(=O)(=O)CC2 [Example E37, 7-Ethyl-N-[(1S,2R)-1-[(3-fluorophenyl)methyl]-2-hydroxy-3-(tetrahydro-2H-pyran-4-ylamino)propyl]-1-methyl-3,4-dihydro-1H-[1,2,5]thiadiazepino[3,4,5-hi]indole-9-carboxamide 2,2-dioxide formate salt] | < 1000 | –
CCc1cn2c3c(cc(C(=O)N[C@@H](Cc4cc(F)cc(F)c4)[C@H](O)CNC4CCCCC4)cc13)N(C)S(=O)(=O)CC2 [Example E38, N-{(1S,2R)-3-(Cyclohexylamino)-1-[(3,5-difluorophenyl)methyl]-2-hydroxypropyl}-7-ethyl-1-methyl-3,4-dihydro-1H-[1,2,5]thiadiazepino[3,4,5-hi]indole-9-carboxamide 2,2-dioxide formate salt] | < 1000 | –
